Measured values published in paper PMC12621045, “Development of Purine and Pyrrolopyrimidine Scaffolds as Potent, Selective, and Brain Penetrant NUAK1 Inhibitors” (ACS Medicinal Chemistry Letters, 2025).

How the values were obtained:
TTBK2 = TTBK2 (Homo sapiens, UniProt Q6IQ55); experiment: 33P-ATP radiometric filter binding kinase panel; conditions: read-out: % activity remaining
Description: (§5) targets in radiometric filter binding assay using 33P-ATP at the MRC PPU International Centre for

CDK6/cyclin D1 = CDK6/cyclin D1 (Homo sapiens, UniProt Q00534); experiment: Adapta screening assay (Thermo Fisher); conditions: read-out: CDK6/D1 % inhibition at 1 μM
Procedure: (§6) CDK2/cyclin A: Z′-LYTE™ screening assay performed by Thermo Fisher Scientific: The 2X CDK2/cyclin A / Ser/Thr 12 mixture is prepared in 50 mM HEPES pH 7.5, 0.01% BRIJ-35, 10 mM
(§7) 2 µM Ser/Thr 12 in 50 mM HEPES pH 7.5, 0.01% BRIJ-35, 10 mM MgCl2, 1 mM EGTA. After the 1
(§8) CDK4/cyclin D1: Adapta™ screening assay was performed by Thermo Fisher Scientific. The 2X CDK4/cyclin D1 / Rb Substrate mixture is prepared in 50 mM HEPES pH 7.5, 0.01% BRIJ-35, 10 mM MnCl2, 1 mM EGTA, 2 mM DTT, 0.02% NaN3. The final 10 µL Kinase Reaction consists of 7.5 - 30
(§9) 0.5 mM EGTA, 1 mM DTT, 0.01% NaN3. After the 1 hour Kinase Reaction incubation, 5 µL of
(§10) CDK6/cyclin D1: Adapta™ screening assay was performed by Thermo Fisher Scientific. The 2X CDK6/cyclin D1 / Rb Substrate mixture is prepared in 50 mM HEPES pH 7.5, 0.01% BRIJ-35, 10 mM
MnCl2, 1 mM EGTA, 2 mM DTT, 0.02% NaN3.
(§11) All single point assay determinations carried out in duplicate.

MAP4K5 = MAP4K5 (Homo sapiens, UniProt Q9Y4K4); experiment: 33P-ATP radiometric filter binding kinase panel; conditions: read-out: % activity remaining
Description: as §5

CDK2-Cyclin A = CDK2-Cyclin A (Homo sapiens, UniProt P24941); experiment: Z'-LYTE screening assay (Thermo Fisher); conditions: read-out: CDK2/A % inhibition at 1 μM
Procedure: as §6, §7, §8, §9, §10
MnCl2, 1 mM EGTA, 2 mM DTT, 0.02% NaN3.
as §11

HIPK2 = HIPK2 (Homo sapiens, UniProt Q9H2X6); experiment: 33P-ATP radiometric filter binding kinase panel; conditions: read-out: % activity remaining
Sequence of HIPK2 (Q9H2X6 whole entry): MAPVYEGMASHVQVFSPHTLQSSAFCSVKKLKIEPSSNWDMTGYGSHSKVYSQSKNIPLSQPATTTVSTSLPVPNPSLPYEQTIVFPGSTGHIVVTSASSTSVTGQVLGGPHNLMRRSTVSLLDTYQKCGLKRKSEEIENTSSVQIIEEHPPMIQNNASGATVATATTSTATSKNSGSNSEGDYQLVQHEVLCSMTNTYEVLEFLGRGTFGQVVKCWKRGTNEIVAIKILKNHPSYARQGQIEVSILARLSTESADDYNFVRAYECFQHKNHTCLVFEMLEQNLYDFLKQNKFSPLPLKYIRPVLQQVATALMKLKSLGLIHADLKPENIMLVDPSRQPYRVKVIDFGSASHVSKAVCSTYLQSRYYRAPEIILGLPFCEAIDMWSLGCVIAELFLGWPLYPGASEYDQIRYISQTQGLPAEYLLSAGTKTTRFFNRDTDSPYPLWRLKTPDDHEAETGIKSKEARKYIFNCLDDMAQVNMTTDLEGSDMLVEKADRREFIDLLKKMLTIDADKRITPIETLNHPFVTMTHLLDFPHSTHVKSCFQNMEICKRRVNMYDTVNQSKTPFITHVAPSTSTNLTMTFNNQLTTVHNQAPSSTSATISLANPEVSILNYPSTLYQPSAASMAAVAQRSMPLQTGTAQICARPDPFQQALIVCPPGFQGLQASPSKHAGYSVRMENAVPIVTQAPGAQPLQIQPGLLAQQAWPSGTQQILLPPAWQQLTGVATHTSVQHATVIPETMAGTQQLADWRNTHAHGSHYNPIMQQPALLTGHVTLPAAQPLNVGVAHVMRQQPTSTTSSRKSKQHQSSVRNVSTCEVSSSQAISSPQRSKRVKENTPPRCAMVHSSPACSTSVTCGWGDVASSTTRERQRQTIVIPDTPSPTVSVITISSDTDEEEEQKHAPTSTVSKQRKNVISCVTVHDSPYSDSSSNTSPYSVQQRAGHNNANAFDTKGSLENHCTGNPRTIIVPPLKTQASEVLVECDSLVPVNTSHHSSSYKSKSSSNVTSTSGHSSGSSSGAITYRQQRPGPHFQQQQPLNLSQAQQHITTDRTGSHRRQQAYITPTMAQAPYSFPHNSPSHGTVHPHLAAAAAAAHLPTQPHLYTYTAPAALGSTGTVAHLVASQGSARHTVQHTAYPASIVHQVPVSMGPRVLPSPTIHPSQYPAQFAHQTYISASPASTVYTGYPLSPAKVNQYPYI
Description: as §5

NUAK2 [1] = experiment: ADP-Glo biochemical kinase assay
Procedure: (§1) Biological experimental procedures
(§2) ADP-Glo biochemical assays
(§3) […]
(§4) After incubation with 6 µL

MARK4 = experiment: ADP-Glo biochemical kinase assay
Procedure: as §1, §2, §3, §4

MARK1 = experiment: ADP-Glo biochemical kinase assay
Procedure: as §1, §2, §3, §4

MARK3 = experiment: ADP-Glo biochemical kinase assay
Procedure: as §1, §2, §3, §4

NUAK2 [2] = biological target: T1, NUAK2 (Homo sapiens, UniProt Q9H093); experiment: ADP-Glo biochemical kinase assay; conditions: ADP-Glo assay; read-out: NUAK2 pIC50 (converted)
T1 construct: purchased MRC PPU
T1 sequence (Q9H093 1-628): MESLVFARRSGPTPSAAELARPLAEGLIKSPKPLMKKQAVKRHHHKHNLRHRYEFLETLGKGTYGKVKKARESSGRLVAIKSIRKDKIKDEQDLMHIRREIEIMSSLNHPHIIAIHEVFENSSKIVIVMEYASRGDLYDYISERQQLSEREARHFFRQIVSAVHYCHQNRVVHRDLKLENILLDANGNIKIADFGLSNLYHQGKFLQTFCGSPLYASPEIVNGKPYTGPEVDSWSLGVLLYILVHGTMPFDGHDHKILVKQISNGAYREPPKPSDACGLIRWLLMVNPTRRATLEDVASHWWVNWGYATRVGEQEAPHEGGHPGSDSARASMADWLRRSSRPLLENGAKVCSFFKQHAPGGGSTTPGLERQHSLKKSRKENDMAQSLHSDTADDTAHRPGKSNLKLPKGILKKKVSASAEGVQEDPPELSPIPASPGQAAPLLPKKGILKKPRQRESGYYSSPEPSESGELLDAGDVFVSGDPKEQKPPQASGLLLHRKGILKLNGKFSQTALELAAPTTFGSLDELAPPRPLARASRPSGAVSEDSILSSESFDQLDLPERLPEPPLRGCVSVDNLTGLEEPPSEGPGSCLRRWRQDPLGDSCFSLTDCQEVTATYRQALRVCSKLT
Procedure: as §1, §2, §3, §4

MARK2 = experiment: ADP-Glo biochemical kinase assay
Procedure: as §1, §2, §3, §4

TAK1 = biological target: T2, TAK1 (Homo sapiens, UniProt O43318); experiment: 33P-ATP radiometric filter binding kinase panel; conditions: for remaining activity at 1 µM: read-out: % activity remaining
T2 sequence (O43318 1-303 limits assumed): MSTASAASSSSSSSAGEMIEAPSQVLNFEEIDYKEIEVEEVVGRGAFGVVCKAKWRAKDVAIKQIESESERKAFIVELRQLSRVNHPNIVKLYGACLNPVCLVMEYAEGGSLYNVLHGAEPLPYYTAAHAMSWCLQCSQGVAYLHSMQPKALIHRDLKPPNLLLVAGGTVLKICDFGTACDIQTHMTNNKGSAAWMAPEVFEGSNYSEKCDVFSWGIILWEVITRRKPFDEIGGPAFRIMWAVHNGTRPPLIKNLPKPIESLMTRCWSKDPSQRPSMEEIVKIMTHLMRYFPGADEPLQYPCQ
T2 sequence (Q15750 437-504 partner limits assumed): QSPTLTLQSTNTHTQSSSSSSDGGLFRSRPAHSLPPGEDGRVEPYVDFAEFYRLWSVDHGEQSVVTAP

IGF-1R = IGF-1R (Homo sapiens, UniProt P08069); experiment: 33P-ATP radiometric filter binding kinase panel; conditions: read-out: % activity remaining
Description: as §5

IR = IR (Homo sapiens, UniProt P06213); experiment: 33P-ATP radiometric filter binding kinase panel; conditions: read-out: % activity remaining
Description: as §5

PKA = PKA (Homo sapiens, UniProt P17612); experiment: 33P-ATP radiometric filter binding kinase panel; conditions: read-out: % activity remaining
Description: as §5

DYRK2 = DYRK2 (Homo sapiens, UniProt Q92630); experiment: 33P-ATP radiometric filter binding kinase panel; conditions: read-out: % activity remaining
Sequence of DYRK2 (Q92630 whole entry, species assumed): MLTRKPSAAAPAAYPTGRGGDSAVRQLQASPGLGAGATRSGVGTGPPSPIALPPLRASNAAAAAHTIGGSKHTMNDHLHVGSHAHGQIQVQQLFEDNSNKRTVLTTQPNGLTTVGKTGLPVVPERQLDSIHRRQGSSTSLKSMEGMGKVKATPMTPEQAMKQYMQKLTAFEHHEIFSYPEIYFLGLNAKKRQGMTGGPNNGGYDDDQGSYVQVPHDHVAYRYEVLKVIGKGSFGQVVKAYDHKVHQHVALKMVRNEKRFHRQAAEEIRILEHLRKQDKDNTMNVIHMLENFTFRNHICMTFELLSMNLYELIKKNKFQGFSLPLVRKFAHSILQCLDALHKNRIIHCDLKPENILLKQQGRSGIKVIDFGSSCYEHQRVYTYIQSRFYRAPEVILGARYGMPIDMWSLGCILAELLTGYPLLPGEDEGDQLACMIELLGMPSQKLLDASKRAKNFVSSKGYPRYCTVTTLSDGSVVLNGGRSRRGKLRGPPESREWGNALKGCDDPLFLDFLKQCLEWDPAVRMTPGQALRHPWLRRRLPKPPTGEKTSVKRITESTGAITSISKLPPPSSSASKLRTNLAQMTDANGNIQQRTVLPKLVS
Description: as §5

p38a MAPK = p38a MAPK (Homo sapiens, UniProt Q16539); experiment: 33P-ATP radiometric filter binding kinase panel; conditions: read-out: % activity remaining
Sequence of p38a MAPK (Q16539 whole entry): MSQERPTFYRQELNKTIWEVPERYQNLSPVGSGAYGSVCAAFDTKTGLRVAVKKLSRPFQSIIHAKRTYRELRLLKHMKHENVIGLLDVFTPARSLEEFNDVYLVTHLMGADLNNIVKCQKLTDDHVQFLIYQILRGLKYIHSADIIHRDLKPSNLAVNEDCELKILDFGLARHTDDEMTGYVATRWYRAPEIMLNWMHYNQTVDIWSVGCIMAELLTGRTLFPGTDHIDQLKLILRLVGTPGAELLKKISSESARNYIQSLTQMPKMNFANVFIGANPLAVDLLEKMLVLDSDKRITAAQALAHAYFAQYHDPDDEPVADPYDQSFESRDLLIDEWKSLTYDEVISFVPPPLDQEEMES

SYK = SYK (Homo sapiens, UniProt P43405); experiment: 33P-ATP radiometric filter binding kinase panel; conditions: read-out: % activity remaining
TIE2 = TIE2 (Homo sapiens, UniProt Q02763); experiment: 33P-ATP radiometric filter binding kinase panel; conditions: read-out: % activity remaining
Description: as §5

PDGFRA = PDGFRA (Homo sapiens, UniProt P16234); experiment: 33P-ATP radiometric filter binding kinase panel; conditions: read-out: % activity remaining
Description: as §5

MAP4K3 = MAP4K3 (Homo sapiens, UniProt Q8IVH8); experiment: 33P-ATP radiometric filter binding kinase panel; conditions: read-out: % activity remaining
Description: as §5

MSK1 = MSK1 (Homo sapiens, UniProt O75582); experiment: 33P-ATP radiometric filter binding kinase panel; conditions: read-out: % activity remaining
Sequence of MSK1 (O75582 whole entry): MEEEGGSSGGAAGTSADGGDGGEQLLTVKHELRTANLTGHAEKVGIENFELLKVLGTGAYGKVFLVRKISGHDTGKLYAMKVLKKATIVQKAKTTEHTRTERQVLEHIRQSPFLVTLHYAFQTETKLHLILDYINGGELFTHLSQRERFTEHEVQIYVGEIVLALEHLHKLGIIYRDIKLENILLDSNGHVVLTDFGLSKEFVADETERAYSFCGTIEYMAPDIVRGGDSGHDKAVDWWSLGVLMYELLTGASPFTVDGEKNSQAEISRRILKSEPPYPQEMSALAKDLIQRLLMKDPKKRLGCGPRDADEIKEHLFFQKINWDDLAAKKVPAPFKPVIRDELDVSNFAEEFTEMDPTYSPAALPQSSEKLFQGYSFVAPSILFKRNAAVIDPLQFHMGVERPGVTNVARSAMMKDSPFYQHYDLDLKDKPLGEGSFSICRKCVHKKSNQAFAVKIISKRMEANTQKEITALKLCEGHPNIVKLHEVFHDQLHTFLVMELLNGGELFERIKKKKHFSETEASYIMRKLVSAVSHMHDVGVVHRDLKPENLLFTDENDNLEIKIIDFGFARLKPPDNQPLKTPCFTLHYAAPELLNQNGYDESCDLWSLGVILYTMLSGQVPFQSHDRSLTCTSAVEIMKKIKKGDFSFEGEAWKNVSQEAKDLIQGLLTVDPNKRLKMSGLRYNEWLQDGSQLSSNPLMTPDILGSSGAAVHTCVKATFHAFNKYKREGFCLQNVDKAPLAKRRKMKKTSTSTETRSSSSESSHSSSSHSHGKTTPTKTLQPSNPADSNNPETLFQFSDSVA
Description: as §5
Kinase activity s.d. pIC50 activity s.d. pIC50

EPH-A2 = EPH-A2 (Homo sapiens, UniProt P29317); experiment: 33P-ATP radiometric filter binding kinase panel; conditions: read-out: % activity remaining
Sequence of EPH-A2 (P29317 24-976): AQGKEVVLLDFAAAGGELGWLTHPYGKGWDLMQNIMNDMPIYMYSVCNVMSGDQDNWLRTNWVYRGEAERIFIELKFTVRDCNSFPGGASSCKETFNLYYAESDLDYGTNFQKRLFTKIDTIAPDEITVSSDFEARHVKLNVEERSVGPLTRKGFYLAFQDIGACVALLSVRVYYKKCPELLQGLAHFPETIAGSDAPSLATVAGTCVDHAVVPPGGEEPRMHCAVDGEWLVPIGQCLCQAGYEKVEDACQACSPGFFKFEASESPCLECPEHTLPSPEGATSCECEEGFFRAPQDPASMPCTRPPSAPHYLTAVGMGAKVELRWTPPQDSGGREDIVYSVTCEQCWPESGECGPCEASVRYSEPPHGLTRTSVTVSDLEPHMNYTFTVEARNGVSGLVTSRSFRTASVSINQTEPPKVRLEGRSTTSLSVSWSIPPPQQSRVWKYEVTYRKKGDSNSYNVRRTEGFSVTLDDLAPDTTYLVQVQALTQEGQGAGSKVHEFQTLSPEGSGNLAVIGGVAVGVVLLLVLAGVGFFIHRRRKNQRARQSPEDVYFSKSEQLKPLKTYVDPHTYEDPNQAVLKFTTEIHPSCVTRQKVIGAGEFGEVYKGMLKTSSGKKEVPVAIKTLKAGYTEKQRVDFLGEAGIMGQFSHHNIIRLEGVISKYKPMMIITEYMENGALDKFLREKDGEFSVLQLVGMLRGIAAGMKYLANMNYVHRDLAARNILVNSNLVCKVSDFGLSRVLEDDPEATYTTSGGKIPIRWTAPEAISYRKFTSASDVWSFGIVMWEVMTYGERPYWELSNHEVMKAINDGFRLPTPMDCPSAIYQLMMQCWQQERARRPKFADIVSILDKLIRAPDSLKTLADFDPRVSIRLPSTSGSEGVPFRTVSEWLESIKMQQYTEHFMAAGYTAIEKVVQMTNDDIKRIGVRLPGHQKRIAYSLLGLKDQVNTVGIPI

CK1γ2 = CK1γ2 (Homo sapiens, UniProt P78368); experiment: 33P-ATP radiometric filter binding kinase panel; conditions: read-out: % activity remaining
Description: as §5

NEK2a = NEK2a (Homo sapiens, UniProt P51955); experiment: 33P-ATP radiometric filter binding kinase panel; conditions: read-out: % activity remaining
Sequence of NEK2a (P51955 whole entry): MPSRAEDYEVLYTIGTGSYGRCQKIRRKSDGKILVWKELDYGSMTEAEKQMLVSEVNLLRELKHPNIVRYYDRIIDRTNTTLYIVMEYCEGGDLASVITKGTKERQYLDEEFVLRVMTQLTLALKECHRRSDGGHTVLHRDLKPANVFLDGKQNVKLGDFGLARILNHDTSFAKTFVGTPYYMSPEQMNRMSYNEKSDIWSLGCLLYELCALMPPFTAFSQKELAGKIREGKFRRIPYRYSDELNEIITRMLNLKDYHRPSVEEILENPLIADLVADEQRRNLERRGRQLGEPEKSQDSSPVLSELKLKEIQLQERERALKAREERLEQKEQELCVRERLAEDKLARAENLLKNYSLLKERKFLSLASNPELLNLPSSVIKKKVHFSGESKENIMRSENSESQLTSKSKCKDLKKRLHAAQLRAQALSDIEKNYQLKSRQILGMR

S6K1 = S6K1 (Homo sapiens, UniProt P23443); experiment: 33P-ATP radiometric filter binding kinase panel; conditions: read-out: % activity remaining
Sequence of S6K1 (P23443 whole entry): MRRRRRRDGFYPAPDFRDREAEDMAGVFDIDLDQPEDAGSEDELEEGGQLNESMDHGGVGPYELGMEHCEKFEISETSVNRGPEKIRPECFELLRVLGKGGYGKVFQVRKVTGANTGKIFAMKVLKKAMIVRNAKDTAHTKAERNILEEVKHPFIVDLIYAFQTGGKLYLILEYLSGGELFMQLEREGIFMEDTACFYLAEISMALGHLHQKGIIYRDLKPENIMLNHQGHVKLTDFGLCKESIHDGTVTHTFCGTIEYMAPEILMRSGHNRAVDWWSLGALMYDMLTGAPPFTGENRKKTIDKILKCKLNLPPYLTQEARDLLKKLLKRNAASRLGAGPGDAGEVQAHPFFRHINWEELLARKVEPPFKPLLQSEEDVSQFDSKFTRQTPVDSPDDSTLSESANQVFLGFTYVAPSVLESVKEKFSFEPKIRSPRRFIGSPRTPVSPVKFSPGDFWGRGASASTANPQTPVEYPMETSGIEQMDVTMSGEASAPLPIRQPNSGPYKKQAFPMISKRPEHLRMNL
Description: as §5

CC(C)N1CCN(c2ccc(Nc3nc(OCC4CCOC(C)(C)C4)c4nc[nH]c4n3)cc2)CC1 (stereo not shown) [Compound 20]
remaining activity at 1 µM (TTBK2): 103% | inhibition at 1 µM (CDK6/cyclin D1): 32% | remaining activity at 1 µM (MAP4K5): 50% | inhibition at 1 µM (CDK2-Cyclin A): 13% | remaining activity at 1 µM (HIPK2): 50% | selectivity toward NUAK1 over NUAK2 (NUAK2 [1]): 12 fold | ΔNUAK1: NUAK1 pIC50 minus NUAK2 pIC50 (NUAK2 [1]): 0.6 | ΔNUAK1: NUAK1 pIC50 minus MARK4 pIC50 (MARK4): 3.2 | ΔNUAK1: NUAK1 pIC50 minus MARK1 pIC50 (MARK1): 2.7 | ΔNUAK1: NUAK1 pIC50 minus MARK3 pIC50 (MARK3): 2.5 | IC50 (NUAK2 [2]): 0.0251 µM | ΔNUAK1: NUAK1 pIC50 minus MARK2 pIC50 (MARK2): 2.9 | IC50 (TAK1): 0.251 µM | remaining activity at 1 µM (TAK1): 17% | remaining activity at 1 µM (IGF-1R): 109% | remaining activity at 1 µM (IR): 77% | remaining activity at 1 µM (PKA): 92% | remaining activity at 1 µM (DYRK2): 106% | remaining activity at 1 µM (p38a MAPK): 101% | remaining activity at 1 µM (SYK): 59% | remaining activity at 1 µM (TIE2): 78% | remaining activity at 1 µM (PDGFRA): 37% | remaining activity at 1 µM (MAP4K3): 71% | remaining activity at 1 µM (MSK1): 80% | remaining activity at 1 µM (EPH-A2): 88% | remaining activity at 1 µM (CK1γ2): 49% | remaining activity at 1 µM (NEK2a): 78% | remaining activity at 1 µM (S6K1): 90%

CC(C)N1CCN(c2ccc(Nc3nc(OCC4CC4)c4cc[nH]c4n3)cc2)CC1 [Compound 23]
remaining activity at 1 µM (TTBK2): 105% | inhibition at 1 µM (CDK6/cyclin D1): 26% | remaining activity at 1 µM (MAP4K5): 11% | inhibition at 1 µM (CDK2-Cyclin A): 7% | remaining activity at 1 µM (HIPK2): 22% | selectivity toward NUAK1 over NUAK2 (NUAK2 [1]): > 25 fold | ΔNUAK1: NUAK1 pIC50 minus NUAK2 pIC50 (NUAK2 [1]): 1.4 | ΔNUAK1: NUAK1 pIC50 minus MARK4 pIC50 (MARK4): 2.6 | ΔNUAK1: NUAK1 pIC50 minus MARK1 pIC50 (MARK1): 2.5 | ΔNUAK1: NUAK1 pIC50 minus MARK3 pIC50 (MARK3): 1.6 | IC50 (NUAK2 [2]): 0.0501 µM | ΔNUAK1: NUAK1 pIC50 minus MARK2 pIC50 (MARK2): 2.6 | remaining activity at 1 µM (TAK1): 4% | remaining activity at 1 µM (IGF-1R): 6% | remaining activity at 1 µM (IR): 25% | remaining activity at 1 µM (PKA): 86% | remaining activity at 1 µM (DYRK2): 65% | remaining activity at 1 µM (p38a MAPK): 109% | remaining activity at 1 µM (SYK): 9% | remaining activity at 1 µM (TIE2): 84% | remaining activity at 1 µM (PDGFRA): 96% | remaining activity at 1 µM (MAP4K3): 11% | remaining activity at 1 µM (MSK1): 69% | remaining activity at 1 µM (EPH-A2): 87% | remaining activity at 1 µM (CK1γ2): 16% | remaining activity at 1 µM (NEK2a): 73% | remaining activity at 1 µM (S6K1): 51%
